Here are results for 2 molecules from US20200370012A1, “METHODS OF MAKING CHIMERIC ANTIGEN RECEPTOR-EXPRESSING CELLS” (Novartis AG, priority 2017, published 2020).

Experiment [1] concerns Anti-CD19BBζ CAR T cells. Put plainly: Metabolic modulation of CAR T cells: differentiation phenotype by flow cytometry after 9 days of culture with or without 2-DG. The format is cell-based, human. Particulars: FIG. 4 and FIG. 5. The protocol:
The following T-cell subsets are shown: naïve-like (CCR7+CD45RO−); central memory (CCR7+CD45RO+); effector memory (CCR7−CD45RO+); and effector (CCR7−CD45RO−). Anti-CD19BBζ CAR T cells were generated as in the presence or absence of the glycolysis inhibitor 2-deoxyglucose (2-DG; Sigma-Aldrich). Following 9 days of culture, the differentiation phenotype of these cells was determined by flow cytometry. CAR+T-cells were sorted on the FACSAria II cell sorter (BD Biosciences) and combined 1:1 with irradiated K562 cells engineered to express CD19 (K562-CD19). CTL019cells were re-stimulated ×3 with K562-CD19 targets. During the proliferation assay, absolute cell counts were obtained using the Luna automated cell counter (Logos Biosystems).
(A flow cytometer gives signals particle by particle.)

The target in experiment [2] is T1, STAT3 (pY705) (Homo sapiens, UniProt P40763).
T1 construct: CTL019 cells from CLL patient infusion products were thawed and stimulated with anti-idiotypic antibody-coated beads or mock beads; endogenous in cells; host or cells: CTL019 (anti-CD19 4-1BB/CD3zeta CAR) T cells made from autologous T cells of CLL patients; in some experiments FACS-sorted CD8+ T cell subsets
T1 sequence (P40763 whole entry, the tested form may be a part): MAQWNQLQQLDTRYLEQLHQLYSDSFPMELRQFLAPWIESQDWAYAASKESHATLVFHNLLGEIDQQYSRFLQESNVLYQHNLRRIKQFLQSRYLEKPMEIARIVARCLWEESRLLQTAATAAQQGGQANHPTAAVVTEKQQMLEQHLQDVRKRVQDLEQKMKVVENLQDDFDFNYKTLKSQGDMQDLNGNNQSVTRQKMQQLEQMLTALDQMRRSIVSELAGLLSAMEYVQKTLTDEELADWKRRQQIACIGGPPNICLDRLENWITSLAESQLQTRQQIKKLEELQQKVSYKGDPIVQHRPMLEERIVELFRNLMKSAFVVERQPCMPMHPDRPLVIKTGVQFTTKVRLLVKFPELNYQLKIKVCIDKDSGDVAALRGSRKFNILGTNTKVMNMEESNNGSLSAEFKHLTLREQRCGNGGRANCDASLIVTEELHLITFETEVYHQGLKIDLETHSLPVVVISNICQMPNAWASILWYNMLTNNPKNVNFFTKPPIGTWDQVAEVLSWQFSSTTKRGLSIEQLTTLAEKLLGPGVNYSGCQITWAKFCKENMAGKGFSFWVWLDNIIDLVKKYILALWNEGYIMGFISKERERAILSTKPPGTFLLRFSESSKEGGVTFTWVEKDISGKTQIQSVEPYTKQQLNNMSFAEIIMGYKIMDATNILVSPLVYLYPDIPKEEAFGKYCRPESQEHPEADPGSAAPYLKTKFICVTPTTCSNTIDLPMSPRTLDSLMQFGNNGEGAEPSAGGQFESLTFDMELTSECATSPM
As to the kind of experiment: Measurement of pSTAT3 by Phosflow intracellular staining. The format is cell-based. The protocol: FIGS. 7A-7D show IL-6/STAT3 pathway enrichment in CAR T cells. […] Graphs show mean with s.e.m. […] Bars represent the mean and s.e.m. […] Pooled data from patients with highly functional (CR, n=3; PRTD, n=2) versus poorly functional (PR, n=3; NR, n=11) CAR T cells is shown in the box plots (right panel). Whiskers represent min. to max.; boxes represent 25-75 percentiles; the middle line indicates the median. The change in fluorescence intensity (MFI) was calculated by subtracting the […].
FIGS. 11A-11B show levels of pSTAT3 in CD27+ PD-1− CD8 T cells in response to IL-6. […] Summary of IL-6-induced pSTAT3 levels in CD8+ T cell subsets defined by CD27 and PD-1 expression from n=4 different subjects is shown in the right panel. The change in mean fluorescence intensity (AMFI) was determined by subtracting the […].
(§1) CTL019 cells from CLL patient infusion products were thawed and stimulated with anti-idiotypic antibody-coated beads or mock beads. […] The ability of Stattic to inhibit STAT3 signaling was assessed by Phosflow staining as described above. […] Absolute cell numbers and viability were simultaneously measured during the course of CAR T cell expansion using the Luna automated cell counter (Logos Biosystems).

In experiment [3] the test system is CTL019 cells. As to the kind of experiment: Serial re-stimulation assay with irradiated K562-CD19 cells: CTL019 cells made with or without Stattic or recombinant IL-6 (cell numbers and viability). The format is cell-based, human. Particulars: exogenous IL-6 added to culture media during manufacturing of CTL019 cells; FIG. 9. How it is done:
FIGS. 8A-8C show inhibition of the STAT3 pathway in CAR T cells. […] CAR-specific stimulations were performed in the presence or absence of 5 μM Stattic, a small molecule inhibitor of STAT3 activation. […] CAR T cells from this representative subject were then serially re-stimulated with K562 cells engineered to express CD19 on days 0, 7 and 12 of the culture, as indicated by the arrows.
CTL019 cells from this representative subject were then serially re-stimulated with K562 cells engineered to express CD19 or mesothelin (negative control) on days 0, 7, and 12 of the culture, as indicted by the arrows.
as §1, with “beads. For some experiments, cells were stimulated for 10 minutes with recombinant human IL-6 (Miltenyi Biotec.) at a final concentration of 10 ng/mL. In cell subset evaluation experiments, populations of interest were stained for surface markers and sorted on a FACSAria II cell sorter (BD Biosciences) prior to acute stimulation with IL-6.” for “beads.”

In the case of `OC[C@H]1O[C@H](O)C[C@@H](O)[C@@H]1O` [2-DG, (4R,5S,6R)-6-(hydroxymethyl)oxane-2,4,5-triol], the effector differentiation result in experiment [1] (CAR T cells cultured 9 days in presence vs absence of 2-DG) is “decreased”. For the same molecule, in experiment [1] (CCR7+CD45RO+, cultured 9 days in presence vs absence of 2-DG), the “frequencies of CAR T cells with a central memory phenotype” value was “increased”.

Take “IL-6: recombinant human IL-6 (Miltenyi Biotec.), a Stat3 activator”: the pSTAT3 activity result in experiment [2] (exogenous IL-6 added to culture media during manufacturing of CTL019 cells) is given as “Increasing”. Besides, the “pSTAT3 in response to IL-6 stimulation” value in experiment [2] (sorted CD27+PD-1− CD8+ subset, recombinant IL-6 10 ng/ml, FIG. 11A) is recorded as “upregulates”. In experiment [3], the “absolute numbers of CAR T cells following repeated stimulation with CD19-expressing tumor targets” value is given as “elevated” and the “expansion capacity following repeated stimulation with CD19-expressing tumor targets” value was “elevated”.
